Experiments:
Test in all cases: relative viability (nuclei count vs DMSO), 5 days (fraction); higher = more cells survive
[1] = compound: Cn1c(Nc2ccc(C(F)(F)F)cc2)nc2cc(Oc3ccnc(-c4ncc(C(F)(F)F)[nH]4)c3)ccc21 [RAF265] + Cc1cc(Nc2cc(N3CCN(C)CC3)nc(Sc3ccc(NC(=O)C4CC4)cc3)n2)n[nH]1 [Tozasertib] (partner 0.1 µM)
Outline: (§1)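 A single step with final 0.05% Triton X-100, 1% formaldehyde and 1 ug/ml Hoechst fixed the cells and stained nuclei 5 days after treatment. Lung cancer cell lines in 1536-well plates had been treated by pin tool the day after seeding with one drug alone or a fixed anchor-drug dose plus five library-drug doses (not always all listed) in √10 steps, and nuclei were counted on 4× images. Relative viability is the ratio of nuclei in treated wells to nuclei in vehicle wells, taken as the median of duplicate plates.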

[2] = compound: Cc1ccc(-n2nc(C(C)(C)C)cc2NC(=O)Nc2ccc(OCCN3CCOCC3)c3ccccc23)cc1 [Doramapimod] + Nc1nc2[nH]cc(CCc3ccc(C(=O)N[C@@H](CCC(=O)O)C(=O)O)cc3)c2c(=O)[nH]1 [Pemetrexed] (partner 0.2 µM)
Outline: as §1

[3] = compound: C1=CC=C2C(=C1)C=CC(=C2SSC3=C(C=CC4=CC=CC=C43)O)O [IPA-3] + COc1cc2c(Oc3ccc(NC(=O)C4(C(=O)Nc5ccc(F)cc5)CC4)cc3F)ccnc2cc1OCCCN1CCOCC1 [Foretinib] (partner 0.25 µM)
Outline: as §1

[4] = compound: Cn1c(Nc2ccc(C(F)(F)F)cc2)nc2cc(Oc3ccnc(-c4ncc(C(F)(F)F)[nH]4)c3)ccc21 [RAF265] + Nc1ncn([C@H]2C[C@H](O)[C@@H](CO)O2)c(=O)n1 [Decitabine] (partner 2 µM)
Outline: as §1

Cell Line	relative viability ([1]; first compound 0.01 µM)	relative viability ([1]; first compound 0.03162 µM)	relative viability ([1]; first compound 0.1 µM)	relative viability ([1]; first compound 0.3162 µM)	relative viability ([1]; first compound 1 µM)	relative viability ([2]; first compound 0.02 µM)	relative viability ([2]; first compound 0.06325 µM)	relative viability ([2]; first compound 0.2 µM)	relative viability ([2]; first compound 0.6325 µM)	relative viability ([2]; first compound 2 µM)	relative viability ([3]; first compound 0.2 µM)	relative viability ([3]; first compound 0.6325 µM)	relative viability ([3]; first compound 2 µM)	relative viability ([3]; first compound 6.325 µM)	relative viability ([3]; first compound 20 µM)	relative viability ([4]; first compound 0.01 µM)	relative viability ([4]; first compound 0.03162 µM)	relative viability ([4]; first compound 0.1 µM)	relative viability ([4]; first compound 0.3162 µM)	relative viability ([4]; first compound 1 µM)
SK-LU-1	0.333	0.273	0.296	0.278	0.204	1	0.937	0.964	0.863	0.946	1.01	0.78	0.908	0.828	0.911	0.847	0.597	0.508	0.569	0.414
EKVX	0.376	0.344	0.469	0.377	0.306	0.426	0.34	0.325	0.415	0.357	0.775	0.668	0.895	0.893	1.21	0.404	0.318	0.39	0.201	0.281
HCC-827	0.412	0.421	0.445		0.361	0.238	0.253	0.254	0.242	0.199	1.04	1.04	1.08	0.952	0.947	0.341	0.325	0.294		0.333
NCI-H650	0.716	0.704	0.738	0.655	0.375	0.741	0.938	0.976	1.06	0.9	1.11	0.97	1.11	1.03	1.2	0.342	0.319	0.395	0.308	0.288

From the supplement of paper PMC10307832
